Data reported in ChEMBL document CHEMBL4813989, “Design, synthesis, and biological evaluation of nitroisoxazole-containing spiro[pyrrolidin-oxindole] derivatives as novel glutathione peroxidase 4/mouse double minute 2 dual inhibitors that inhibit breast adenocarcinoma cell proliferation” (Eur J Med Chem, 2021).
Activity calls are given as the source filed them. No cut-off for these calls is given here.

Legend:
MCF7 [1] = assay: Induction of apoptosis in human MCF7 cells at 0.1 to 1 uM incubated for 48 hrs in presence of Fer-1 by annexin-V-FITC and PI staining based flow cytometry analysis; format: functional, cell-based; details: dose 0.1-1 µM
MCF7 [2] = assay: Antiproliferative activity against human MCF7 cells assessed as reduction in cell growth incubated for 48 hrs in presence of Fer-1 by CCK8 assay; details: MCF7, 48 h
MCF7 [3] = assay: Induction of apoptosis in human MCF7 cells at 0.1 to 1 uM incubated for 48 hrs by annexin-V-FITC and PI staining based flow cytometry analysis; format: functional, cell-based; details: dose 0.1-1 µM
MCF7 [4] = assay: Antiproliferative activity against human MCF7 cells assessed as reduction in cell growth incubated for 48 hrs by CCK8 assay; details: MCF7, 48 h
MCF-10A = assay: Cytotoxicity against human MCF-10A cells assessed as reduction in cell viability incubated for 48 hrs by CCK8 assay; format: cell-based
[5] = molecular target: E3 ubiquitin-protein ligase Mdm2 (Homo sapiens, UniProt Q00987); assay: Inhibition of MDM2 (unknown origin) using peptide as substrate incubated for 30 mins by fluorescence polarization assay
Sequence of E3 ubiquitin-protein ligase Mdm2 (Q00987 whole entry): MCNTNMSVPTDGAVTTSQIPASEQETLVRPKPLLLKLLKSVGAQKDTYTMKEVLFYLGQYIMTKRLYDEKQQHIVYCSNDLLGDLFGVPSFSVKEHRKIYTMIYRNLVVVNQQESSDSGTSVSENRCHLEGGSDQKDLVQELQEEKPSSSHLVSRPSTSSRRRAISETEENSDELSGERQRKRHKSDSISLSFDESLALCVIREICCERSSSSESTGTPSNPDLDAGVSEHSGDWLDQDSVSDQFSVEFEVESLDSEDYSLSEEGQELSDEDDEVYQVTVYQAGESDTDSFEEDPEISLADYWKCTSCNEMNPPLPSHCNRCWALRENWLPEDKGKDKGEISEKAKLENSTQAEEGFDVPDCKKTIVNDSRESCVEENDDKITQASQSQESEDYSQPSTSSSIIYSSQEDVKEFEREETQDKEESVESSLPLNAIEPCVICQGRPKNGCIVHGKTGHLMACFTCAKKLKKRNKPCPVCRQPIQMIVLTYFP

[6] = molecular target: T1, Phospholipid hydroperoxide glutathione peroxidase GPX4 (Homo sapiens) (UniProt P36969); assay: Inhibition of GPX4 in human MCF7 cells assessed as increase in GPX4 degradation incubated for 48 hrs by Western blot analysis; format: cell-based; details: dose 0.1-2 µM
T1 sequence (whole entry): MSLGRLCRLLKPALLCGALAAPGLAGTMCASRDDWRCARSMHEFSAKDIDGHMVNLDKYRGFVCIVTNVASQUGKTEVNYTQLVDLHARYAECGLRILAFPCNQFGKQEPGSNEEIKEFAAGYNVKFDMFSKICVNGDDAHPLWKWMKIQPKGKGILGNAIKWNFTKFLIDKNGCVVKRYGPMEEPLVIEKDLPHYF

MCF7 [7] = assay: Induction of apoptosis in human MCF7 cells assessed as increase in cleaved caspase-9 level at 2 uM incubated for 48 hrs by Western blot analysis; format: functional, cell-based

Row | SMILES | Activity (MCF7 [1]) | IC50 (MCF7 [2]) [µM] | Activity (MCF7 [3]) | IC50 (MCF7 [4]) [µM] | Activity (MCF-10A) | Ki [5] [µM] | inhibition [6] | Activity (MCF7 [7])
1 | Cc1noc([C@@H]2[C@@H](c3ccccc3)[C@H](C(F)(F)F)N[C@@]23C(=O)Nc2cc(Br)ccc23)c1[N+](=O)[O-] | Active | 13.7 | Active | 0.17 | Non-Toxic | – | – | –
2 | Cc1noc([C@@H]2[C@@H](c3ccccc3Cl)[C@H](C(F)(F)F)N[C@@]23C(=O)Nc2ccccc23)c1[N+](=O)[O-] | – | > 20 | – | 3.77 | Non-Toxic | > 10 | – | –
3 | C=CCN1C(=O)[C@@]2(N[C@@H](C(F)(F)F)[C@H](c3ccccc3)[C@H]2c2onc(C)c2[N+](=O)[O-])c2ccccc21 | – | > 20 | – | 3.42 | Non-Toxic | > 10 | – | –
4 | Cc1noc([C@@H]2[C@@H](c3ccccc3)[C@H](C(F)(F)F)N[C@@]23C(=O)N(C)c2ccccc23)c1[N+](=O)[O-] | – | > 20 | – | 3.52 | Non-Toxic | > 10 | – | –
5 | COc1ccccc1[C@H]1[C@H](C(F)(F)F)N[C@@]2(C(=O)Nc3ccccc32)[C@@H]1c1onc(C)c1[N+](=O)[O-] | – | > 20 | – | 4.59 | Non-Toxic | > 10 | – | –
6 | CC(=O)N1C(=O)[C@@]2(N[C@@H](C(F)(F)F)[C@H](c3ccccc3)[C@H]2c2onc(C)c2[N+](=O)[O-])c2ccccc21 | – | > 20 | – | 3.23 | Non-Toxic | > 10 | – | –
7 | Cc1ccccc1[C@H]1[C@H](C(F)(F)F)N[C@@]2(C(=O)Nc3ccccc32)[C@@H]1c1onc(C)c1[N+](=O)[O-] | – | > 20 | – | 3.5 | Non-Toxic | > 10 | – | –
8 | Cc1noc([C@@H]2[C@@H](c3ccccc3Br)[C@H](C(F)(F)F)N[C@@]23C(=O)Nc2ccccc23)c1[N+](=O)[O-] | – | > 20 | – | 4.71 | Non-Toxic | > 10 | – | –
9 | Cc1noc([C@@H]2[C@@H](c3ccccc3)[C@H](C(F)(F)F)N[C@@]23C(=O)Nc2ccccc23)c1[N+](=O)[O-] | – | 17.6 | – | 0.38 | Non-Toxic | – | – | –
10 | Cc1noc([C@@H]2[C@@H](c3ccc(Cl)cc3)[C@H](C(F)(F)F)N[C@@]23C(=O)Nc2ccccc23)c1[N+](=O)[O-] | – | > 20 | – | 1.14 | Non-Toxic | – | – | –
11 | Cc1noc([C@@H]2[C@@H](c3cc(Cl)ccc3Cl)[C@H](C(F)(F)F)N[C@@]23C(=O)Nc2ccccc23)c1[N+](=O)[O-] | – | > 20 | – | 3.98 | Non-Toxic | > 10 | – | –
12 | COc1ccc(C2=NC(c3ccc(Cl)cc3)C(c3ccc(Cl)cc3)N2C(=O)N2CCNC(=O)C2)c(OC(C)C)c1 (configuration not stated) | – | 15.7 | – | 14.6 | – | – | inactive | Active
